Measured values from patent publication US8148367B2 (Takeda Pharmaceutical Company Limited, priority 2008, dated 2012).

Target: T1, Recombinant human renin (Homo sapiens, UniProt P00797)
T1 construct: isolate the active form (residues 67-406); made in house; host or cells: FreeStyle 293-F cells, transient expression of pcDNA3.1(+)/hREN
T1 sequence (P00797 67-406): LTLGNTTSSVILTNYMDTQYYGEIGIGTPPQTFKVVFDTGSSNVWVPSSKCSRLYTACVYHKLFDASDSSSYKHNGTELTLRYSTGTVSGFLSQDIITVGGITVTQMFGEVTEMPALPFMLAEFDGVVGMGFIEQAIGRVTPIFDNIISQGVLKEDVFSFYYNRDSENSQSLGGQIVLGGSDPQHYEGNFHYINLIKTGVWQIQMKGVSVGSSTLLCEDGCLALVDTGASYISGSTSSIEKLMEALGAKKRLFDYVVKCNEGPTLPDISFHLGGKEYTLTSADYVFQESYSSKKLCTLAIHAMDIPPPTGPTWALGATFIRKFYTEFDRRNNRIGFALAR
Assay: In vitro enzymatic activity assay of renin inhibitors (fluorescence, QXL520/HiLyteFluo488 peptide substrate)
Format: biochemical
Conditions: recombinant human renin 3 nM, 1 μM substrate, pre-incubated 10 minutes at 37° C., incubation one hour, pH 7.4, 5% DMSO; read-out: IC50 of Exemplified Compounds Against Renin

Row | SMILES | IC50
1 | O=C(c1c(-c2ccccc2)n(-c2ccccc2)c(=O)n1Cc1cccc2cccnc12)N1CCNCC1 [Example 82, 1,5-Diphenyl-4-(piperazine-1-carbonyl)-3-(quinolin-8-ylmethyl)-1H-imidazol-2(3H)-one] | > 1000 nM
2 | O=C(c1c(-c2ccccc2)n(-c2cccc(N3CCOCC3)c2)c(=O)n1CCCNS(=O)(=O)c1ccc(Cl)cc1)N1CCNCC1 [Example 202, 4-Chloro-N-(3-(3-(3-morpholinophenyl)-2-oxo-4-phenyl-5-(piperazine-1-carbonyl)-2,3-dihydro-1H-imidazol-1-yl)propyl)benzenesulfonamide] | 500 to 1000 nM
3 | O=C(c1c(-c2ccccc2)n(-c2cccc(N3CCOCC3)c2)c(=O)n1CCNS(=O)(=O)c1ccccc1)N1CCNCC1 [Example 185, N-(2-(3-(3-Morpholinophenyl)-2-oxo-4-phenyl-5-(piperazine-1-carbonyl)-2,3-dihydro-1H-imidazol-1-yl)ethyl)benzenesulfonamide] | > 1000 nM
4 | COCCCOc1cccc(-n2c(-c3ccccc3)c(C(=O)N3CCNCC3)n(CCNC(=O)CC(C)C)c2=O)c1 [Example 184, N-(2-(3-(3-(3-Methoxypropoxy)phenyl)-2-oxo-4-phenyl-5-(piperazine-1-carbonyl)-2,3-dihydro-1H-imidazol-1-yl)ethyl)-3-methylbutanamide] | > 1000 nM
5 | C=CCn1c(C(=O)N2CCNCC2)c(-c2ccccc2)n(-c2cccc(N3CCOCC3)c2)c1=O [Example 150, 1-Allyl-3-(3-morpholinophenyl)-4-phenyl-5-(piperazine-1-carbonyl)-1H-imidazol-2(3H)-one] | > 1000 nM
6 | COCCCOc1cccc(-n2c(-c3ccccc3)c(C(=O)N3CCNCC3)n(Cc3ccc(F)c(F)c3)c2=O)c1 [Example 164, 1-(3,4-Difluorobenzyl)-3-(3-(3-methoxypropoxy)phenyl)-4-phenyl-5-(piperazine-1-carbonyl)-1H-imidazol-2(3H)-one] | 500 to 1000 nM
7 | COc1ccccc1-n1c(-c2ccccc2)c(C(=O)N2CCNCC2)n(CCCNC(=O)CC(C)C)c1=O [Example 167, N-(3-(3-(2-Methoxyphenyl)-2-oxo-4-phenyl-5-(piperazine-1-carbonyl)-2,3-dihydro-1H-imidazol-1-yl)propyl)-3-methylbutanamide] | > 1000 nM
8 | O=C(c1c(-c2ccccc2)n([C@H]2CCCC[C@H]2O)c(=O)n1Cc1cccc(Oc2ccccc2)c1)N1CCNCC1 [Example 152, 1-((1S,2R)-2-Hydroxycyclohexyl)-3-(3-phenoxybenzyl)-5-phenyl-4-(piperazine-1-carbonyl)-1H-imidazol-2(3H)-one] | 500 to 1000 nM
9 | C=CCn1c(C(=O)N2CCNCC2)c(-c2ccccc2)n(-c2ccccc2C)c1=O [Example 141, 1-Allyl-4-phenyl-5-(piperazine-1-carbonyl)-3-o-tolyl-1H-imidazol-2(3H)-one] | > 1000 nM
10 | O=C(c1[nH]c(=O)n(-c2ccccc2)c1-c1ccccc1)N1CCNCC1 [Example 18, 1,5-Diphenyl-4-(piperazine-1-carbonyl)-1H-imidazol-2(3H)-one] | > 1000 nM
11 | O=C(c1[nH]c(=O)n(-c2ccccc2)c1CC1CC1)N1CCNCC1 [Example 25, 5-(Cyclopropylmethyl)-1-phenyl-4-(piperazine-1-carbonyl)-1H-imidazol-2(3H)-one] | > 1000 nM
12 | Cc1ccccc1-n1c(-c2ccccc2)c(C(=O)N2CCNCC2)n(CCNC(=O)Nc2ccccc2Cl)c1=O [Example 212, 1-(2-Chlorophenyl)-3-(2-(2-oxo-4-phenyl-5-(piperazine-1-carbonyl)-3-o-tolyl-2,3-dihydro-1H-imidazol-1-yl)ethyl)urea] | 500 to 1000 nM
13 | Cc1ccccc1S(=O)(=O)NCCCn1c(C(=O)N2CCNCC2)c(-c2ccccc2)n(-c2cccc(N3CCOCC3)c2)c1=O [Example 197, 2-Methyl-N-(3-(3-(3-morpholinophenyl)-2-oxo-4-phenyl-5-(piperazine-1-carbonyl)-2,3-dihydro-1H-imidazol-1-yl)propyl)benzenesulfonamide] | > 1000 nM
14 | Cc1ccccc1-n1c(-c2ccccc2)c(C(=O)N2CCNCC2)n(CCCNC(=O)Nc2ccccc2)c1=O [Example 223, 1-(3-(2-Oxo-4-phenyl-5-(piperazine-1-carbonyl)-3-o-tolyl-2,3-dihydro-1H-imidazol-1-yl)propyl)-3-phenylurea] | 500 to 1000 nM
15 | COCCOc1cccc(-n2c(-c3ccccc3)c(C(=O)N3CCNCC3)[nH]c2=O)c1 [Example 34, 1-(3-(2-Methoxyethoxy)phenyl)-5-phenyl-4-(piperazine-1-carbonyl)-1H-imidazol-2(3H)-one] | > 1000 nM
16 | O=C(c1[nH]c(=O)n(-c2ccccc2)c1-c1ccccc1)N1CCNCC1CO (stereo not shown) [Example 20, 4-(2-(Hydroxymethyl)piperazine-1-carbonyl)-1,5-diphenyl-1H-imidazol-2(3H)-one] | > 1000 nM
17 | CC1CN(C(=O)c2[nH]c(=O)n(C3CCCCC3)c2-c2ccccc2)CCN1 (stereo not shown) [Example 38, 1-Cyclohexyl-4-(3-methylpiperazine-1-carbonyl)-5-phenyl-1H-imidazol-2(3H)-one] | > 1000 nM
18 | Cc1ccccc1-n1c(-c2ccccc2)c(C(=O)N2CCNCC2)n(CCCNC(=O)c2ccccc2Cl)c1=O [Example 241, 2-Chloro-N-(3-(2-oxo-4-phenyl-5-(piperazine-1-carbonyl)-3-o-tolyl-2,3-dihydro-1H-imidazol-1-yl)propyl)benzamide] | > 1000 nM
19 | CC(C)CC(=O)NCCCn1c(C(=O)N2CCNCC2)c(-c2ccccc2)n(C2CCCC[C@@H]2O)c1=O (stereo partly drawn) [Example 172, N-(3-(3-((2S)-2-Hydroxycyclohexyl)-2-oxo-4-phenyl-5-(piperazine-1-carbonyl)-2,3-dihydro-1H-imidazol-1-yl)propyl)-3-methylbutanamide] | > 1000 nM

Continued, values first:

Row | IC50 | SMILES
20 | < 100 nM | COCCCOc1cccc(-n2c(-c3ccccc3)c(C(=O)N3CCNCC3)n(Cc3cccc(Oc4ccccc4)c3)c2=O)c1 [Example 75, 1-(3-(3-Methoxypropoxy)phenyl)-3-(3-phenoxybenzyl)-5-phenyl-4-(piperazine-1-carbonyl)-1H-imidazol-2(3H)-one]
21 | 100 to 500 nM | COc1ccccc1-n1c(-c2ccccc2)c(C(=O)N2CCNCC2)n(CCCNS(=O)(=O)c2ccccc2)c1=O [Example 161, N-(3-(3-(2-Methoxyphenyl)-2-oxo-4-phenyl-5-(piperazine-1-carbonyl)-2,3-dihydro-1H-imidazol-1-yl)propyl)benzenesulfonamide]
22 | < 100 nM | C=CCS(=O)(=O)Nc1ccccc1-n1c(-c2ccccc2)c(C(=O)N2CCNC[C@H]2Cc2ccccc2)[nH]c1=O [Example 129, (R)—N-(2-(4-(2-Benzylpiperazine-1-carbonyl)-2-oxo-5-phenyl-2,3-dihydro-1H-imidazol-1-yl)phenyl)prop-2-ene-1-sulfonamide]
23 | 100 to 500 nM | Cn1c(C(=O)N2CCNC[C@H]2Cc2ccccc2)c(-c2ccccc2)n(-c2cccc(N3CCOCC3)c2)c1=O [Example 55, (R)-4-(2-Benzylpiperazine-1-carbonyl)-3-methyl-1-(3-morpholinophenyl)-5-phenyl-1H-imidazol-2(3H)-one]
24 | 100 to 500 nM | COc1ccc(-c2cc(Cn3c(C(=O)N4CCNCC4)c(-c4ccccc4)n(C4CCCCC4)c3=O)cc(N(C)C)n2)cn1 [Example 17H, 1-cyclohexyl-3-((6-(dimethylamino)-6′-methoxy-2,3′-bipyridin-4-yl)methyl)-5-phenyl-4-(piperazine-1-carbonyl)-1H-imidazol-2(3H)-one]
25 | 100 to 500 nM | Cc1ccccc1-n1c(-c2ccccc2)c(C(=O)N2CCNCC2)n(Cc2cccc(OCCOc3ccccc3)c2)c1=O [Example 149, 1-(3-(2-Phenoxyethoxy)benzyl)-4-phenyl-5-(piperazine-1-carbonyl)-3-o-tolyl-1H-imidazol-2(3H)-one]
26 | 100 to 500 nM | CC(c1ccccc1)n1c(C(=O)N2CCNCC2)c(-c2ccccc2)n(C2CCCCC2)c1=O (stereo not shown) [Example 69, 1-Cyclohexyl-5-phenyl-3-(1-phenylethyl)-4-(piperazine-1-carbonyl)-1H-imidazol-2(3H)-one]
27 | 100 to 500 nM | Cc1ccccc1-n1c(-c2ccccc2)c(C(=O)N2CCNCC2)n(CCCNC(=O)Nc2ccccc2Cl)c1=O [Example 224, 1-(2-Chlorophenyl)-3-(3-(2-oxo-4-phenyl-5-(piperazine-1-carbonyl)-3-o-tolyl-2,3-dihydro-1H-imidazol-1-yl)propyl)urea]
28 | 100 to 500 nM | O=C(c1c(-c2ccccc2)n(-c2cccc(N3CCOCC3)c2)c(=O)n1CCCNS(=O)(=O)c1ccccc1)N1CCNCC1 [Example 175, N-(3-(3-(3-Morpholinophenyl)-2-oxo-4-phenyl-5-(piperazine-1-carbonyl)-2,3-dihydro-1H-imidazol-1-yl)propyl)benzenesulfonamide]
29 | 100 to 500 nM | COc1cccc(Cn2c(C(=O)N3CCNCC3)c(-c3ccccc3)n(-c3cccc(N4CCOCC4)c3)c2=O)c1 [Example 151, 1-(3-Methoxybenzyl)-3-(3-morpholinophenyl)-4-phenyl-5-(piperazine-1-carbonyl)-1H-imidazol-2(3H)-one]
30 | 100 to 500 nM | COc1cc(Cn2c(C(=O)N3CCNCC3)c(-c3ccccc3)n(-c3ccccc3)c2=O)cc(OC)c1 [Example 86, 1-(3,5-Dimethoxybenzyl)-3,4-diphenyl-5-(piperazine-1-carbonyl)-1H-imidazol-2(3H)-one]
31 | < 100 nM | Cc1ccccc1-n1c(-c2ccccc2)c(C(=O)N2CCNCC2)n(CCCNS(=O)(=O)c2ccccc2C)c1=O [Example 220, 2-Methyl-N-(3-(2-oxo-4-phenyl-5-(piperazine-1-carbonyl)-3-o-tolyl-2,3-dihydro-1H-imidazol-1-yl)propyl)benzenesulfonamide]
